Assay results reported in publication PMC10331583, “Control of fibrosis with enhanced safety via asymmetric inhibition of prolyl‐tRNA synthetase 1” (EMBO Molecular Medicine, 2023).
Values joined by “and” are separate entries in the source; they are usually repeats but may differ in a detail not shown here. Identical values can stand only once. Like-named read-outs stand apart in the source and are kept apart here.

Assays:
[1] = system: TNT Quick Coupled Transcription/Translation System (luciferase synthesis); type: biochemical
[2] = system: WI‐26 VA4 cells; test: CellTiter‐Glo assay (cytotoxicity); conditions: for activity at 0.0001 µM / activity at 0.0003 µM / activity at 0.001 µM / activity at 0.003 µM / activity at 0.01 µM / activity at 0.03 µM / activity at 0.1 µM / activity at 0.3 µM / activity at 1 µM / activity at 3 µM / activity at 10 µM / activity at 30 µM / activity at 100 µM: Homo sapiens
[3] = CellTiter‐Glo assay (cytotoxicity); conditions: human, WI-26 VA4 cells
[4] = log(inhibitor) vs. response, variable slope (four parameters), concentration in nM

O=C(C[C@H]1NCCC[C@@H]1O)Cn1cnc2ccc(-c3cccc(F)c3)cc21 [DWN11251]
TNT-luciferase % of control, average ([1]; 600 nM): 106.78 % of control
TNT-luciferase % of control ([1]; 2000 nM, Experiment #1, replicates, 2 µM): 91.77 % of control (2×) and 97.94 % of control
TNT-luciferase % of control ([1]; 2000 nM, Experiment #2, replicates, 2 µM): 83.24 % of control and 92.77 % of control and 96.24 % of control
TNT-luciferase % of control, average ([1]; 2000 nM): 92.29 % of control
TNT-luciferase % of control ([1]; 6000 nM, Experiment #1, replicates, 6 µM): 60.77 % of control and 59.00 % of control and 60.23 % of control
TNT-luciferase % of control ([1]; 6000 nM, Experiment #2, replicates, 6 µM): 57.75 % of control and 61.56 % of control and 58.87 % of control
TNT-luciferase % of control, average ([1]; 6000 nM): 59.70 % of control
TNT-luciferase % of control ([1]; 20000 nM, Experiment #1, replicates, 20 µM): 9.64 % of control and 9.49 % of control and 10.87 % of control
TNT-luciferase % of control ([1]; 20000 nM, Experiment #2, replicates, 20 µM): 9.97 % of control and 10.14 % of control and 11.01 % of control
TNT-luciferase % of control, average ([1]; 20000 nM): 10.19 % of control
TNT-luciferase % of control ([1]; 60000 nM, Experiment #1, replicates, 60 µM): 0.32 % of control and 0.35 % of control and 0.31 % of control
TNT-luciferase % of control ([1]; 60000 nM, Experiment #2, replicates, 60 µM): 0.26 % of control and 0.27 % of control and 0.30 % of control
TNT-luciferase % of control, average ([1]; 60000 nM): 0.30 % of control
TNT-luciferase % of control ([1]; 200000 nM, Experiment #1, replicates, 200 µM): 0.0123 % of control and 0.00453 % of control and 0.000979 % of control
TNT-luciferase % of control ([1]; 200000 nM, Experiment #2, replicates, 200 µM): 0.0176 % of control and 0.0228 % of control and 0.0243 % of control
TNT-luciferase % of control, average ([1]; 200000 nM): 0.0137 % of control
TNT-luciferase LogIC50 (best-fit value) [1, 4]: 3.802
IC50 ([1]; log(inhibitor) vs. response, variable slope (four parameters), unit from head concentration (nM), read-out: TNT-luciferase IC50 (best-fit value)): 6340 nM
activity at 0.0001 µM ([2]; WI26VA4, read-out: CellTiter-Glo % of control, 0.1 nM, Experiment #1, replicates): 92.7%
activity at 0.0001 µM ([2]; WI26VA4, read-out: CellTiter-Glo % of control, 0.1 nM, Experiment #2, replicates): 120%
activity at 0.0003 µM ([2]; WI26VA4, read-out: CellTiter-Glo % of control, 0.3 nM, Experiment #1, replicates): 111%
activity at 0.0003 µM ([2]; WI26VA4, read-out: CellTiter-Glo % of control, 0.3 nM, Experiment #2, replicates): 121%
activity at 0.001 µM ([2]; WI26VA4, read-out: CellTiter-Glo % of control, 1 nM, Experiment #1, replicates): 105%
activity at 0.001 µM ([2]; WI26VA4, read-out: CellTiter-Glo % of control, 1 nM, Experiment #2, replicates): 107%
activity at 0.003 µM ([2]; WI26VA4, read-out: CellTiter-Glo % of control, 3 nM, Experiment #1, replicates): 122%
activity at 0.003 µM ([2]; WI26VA4, read-out: CellTiter-Glo % of control, 3 nM, Experiment #2, replicates): 111%
activity at 0.01 µM ([2]; WI26VA4, read-out: CellTiter-Glo % of control, 10 nM, Experiment #1, replicates): 100%
activity at 0.01 µM ([2]; WI26VA4, read-out: CellTiter-Glo % of control, 10 nM, Experiment #2, replicates): 121%
activity at 0.03 µM ([2]; WI26VA4, read-out: CellTiter-Glo % of control, 30 nM, Experiment #1, replicates): 108%
activity at 0.03 µM ([2]; WI26VA4, read-out: CellTiter-Glo % of control, 30 nM, Experiment #2, replicates): 124%
activity at 0.1 µM ([2]; WI26VA4, read-out: CellTiter-Glo % of control, 100 nM, Experiment #1, replicates): 112%
activity at 0.1 µM ([2]; WI26VA4, read-out: CellTiter-Glo % of control, 100 nM, Experiment #2, replicates): 126%
activity at 0.3 µM ([2]; WI26VA4, read-out: CellTiter-Glo % of control, 300 nM, Experiment #1, replicates): 98.2%
activity at 0.3 µM ([2]; WI26VA4, read-out: CellTiter-Glo % of control, 300 nM, Experiment #2, replicates): 105%
activity at 1 µM ([2]; WI26VA4, read-out: CellTiter-Glo % of control, 1000 nM, Experiment #1, replicates): 73.2%
activity at 1 µM ([2]; WI26VA4, read-out: CellTiter-Glo % of control, 1000 nM, Experiment #2, replicates): 76.4%
activity at 3 µM ([2]; WI26VA4, read-out: CellTiter-Glo % of control, 3000 nM, Experiment #1, replicates): 36.1%
activity at 3 µM ([2]; WI26VA4, read-out: CellTiter-Glo % of control, 3000 nM, Experiment #2, replicates): 46.1%
activity at 10 µM ([2]; WI26VA4, read-out: CellTiter-Glo % of control, 10000 nM, Experiment #1, replicates): 26.6%
activity at 10 µM ([2]; WI26VA4, read-out: CellTiter-Glo % of control, 10000 nM, Experiment #2, replicates): 30%
activity at 30 µM ([2]; WI26VA4, read-out: CellTiter-Glo % of control, 30000 nM, Experiment #1, replicates): 12.4%
activity at 30 µM ([2]; WI26VA4, read-out: CellTiter-Glo % of control, 30000 nM, Experiment #2, replicates): 11.9%
activity at 100 µM ([2]; WI26VA4, read-out: CellTiter-Glo % of control, 100000 nM, Experiment #1, replicates): 1.59%
activity at 100 µM ([2]; WI26VA4, read-out: CellTiter-Glo % of control, 100000 nM, Experiment #2, replicates): 0.95%
activity at 0.0001 µM ([2]; WI26VA4, read-out: CellTiter-Glo % of control, average, 0.1 nM, average): 110%
activity at 0.0003 µM ([2]; WI26VA4, read-out: CellTiter-Glo % of control, average, 0.3 nM, average): 116%
activity at 0.001 µM ([2]; WI26VA4, read-out: CellTiter-Glo % of control, average, 1 nM, average): 108%
activity at 0.003 µM ([2]; WI26VA4, read-out: CellTiter-Glo % of control, average, 3 nM, average): 112%
activity at 0.01 µM ([2]; WI26VA4, read-out: CellTiter-Glo % of control, average, 10 nM, average): 113%
activity at 0.03 µM ([2]; WI26VA4, read-out: CellTiter-Glo % of control, average, 30 nM, average): 119%
activity at 0.1 µM ([2]; WI26VA4, read-out: CellTiter-Glo % of control, average, 100 nM, average): 119%
activity at 0.3 µM ([2]; WI26VA4, read-out: CellTiter-Glo % of control, average, 300 nM, average): 101%
activity at 1 µM ([2]; WI26VA4, read-out: CellTiter-Glo % of control, average, 1000 nM, average): 76.7%
activity at 3 µM ([2]; WI26VA4, read-out: CellTiter-Glo % of control, average, 3000 nM, average): 41.3%
activity at 10 µM ([2]; WI26VA4, read-out: CellTiter-Glo % of control, average, 10000 nM, average): 29%
activity at 30 µM ([2]; WI26VA4, read-out: CellTiter-Glo % of control, average, 30000 nM, average): 14.4%
activity at 100 µM ([2]; WI26VA4, read-out: CellTiter-Glo % of control, average, 100000 nM, average): 1.22%
CellTiter-Glo LogIC50 (best-fit value) [2, 4]: 3.259
CC50 at 72 h [3]: 1.82 µM
